# Data from publication PMC7076525, “Pharmacokinetics and Intestinal Metabolism of Compound K in Rats and Mice” (Pharmaceutics, 2020).
# Where “and” joins values, the source holds several entries; their conditions need not be identical. Equal values may be shown once. Read-outs that look alike come from different tables or passages of the source.
# Key:
# [1] = Pharmacokinetics, biliary excretion and metabolism of compound K in bile cannulated and non-bile cannulated rats; type: in vivo, SD rats; conditions: for AUC(0-inf) / half-life / AUC(0-t) / C0: SD, rat, plasma, iv; for AUC(0-t): read-out: AUC12 h; for C0: read-out: C0 (initial plasma concentration)
# Method: SD rats were randomly divided into two groups: the non-bile cannulated control group and the bile cannulated group. For the bile cannulated rats, the femoral artery, femoral vein, and bile duct were cannulated with polyethylene tubes (PE-50 and PE-10; Jungdo, Seoul, Korea) under light anesthesia with isoflurane. For the control group, the femoral artery and femoral vein were cannulated with PE-50. Compound K was injected intravenously via the femoral vein at 2 mg/kg. Blood samples (approximately 200 µL) were collected from the femoral artery at 0, 0.25, 0.5, 1, 2, 4, and 8 h after the compound K injection. After each blood sampling, normal saline was injected into the femoral vein to compensate for blood loss. Bile samples were collected every 2 h for a total of 12 h. The blood samples were centrifuged at 16,000× g for 10 min, and 50 μL aliquots of plasma and 50 μL aliquots of bile were stored at −80 °C until the compound K analysis. In the non-bile cannulated rats, the complete contents of the entire gastrointestinal tract were collected using a […] filled with 30 mL pre-warmed saline. The contents were homogenized with tissue homogenizer, and 50 μL aliquots of intestinal fecal homogenates were stored at −80 °C until the analysis. The 50 μL samples of plasma, urine, 10% fecal homogenates, bile, and intestinal fecal homogenates were each mixed with 60 μL of IS (20 ng/mL 13C-caffeine in water) and 600 μL of methyl tert-butyl ether (MTBE). The mixtures were vortexed vigorously for 10 min and centrifuged at 16,000× g for 5 min. After centrifugation, the samples were frozen at −80 °C for 2 h. […] The residue was reconfigured with 200 μL of 80% methanol consisting of 0.1% formic acid, and a 10 μL aliquot was injected into the liquid chromatography–tandem mass spectrometry (LC–MS/MS) system. Compound K and PPD concentrations were analyzed using a modified LC-MS/MS method of Jin et al. with an Agilent 6430 triple quadrupole LC-MS/MS system (Agilent, Wilmington, DE, USA). […] The mobile phase consisted of 0.1% formic acid in water (8%) and 0.1% formic acid in methanol (92%) at a flow rate of 0.15 mL/min. Pharmacokinetic parameters were estimated using non-compartmental methods (WinNonlin version 2.0, Pharsight Co., Certara, NJ, USA).
# [2] = set-up: method as in PMID 16302287, PMID 32148404, PMID 30013338, PMID 26680316; conditions: cited from earlier work
# [3] = set-up: method as in PMID 28955238; conditions: humans, cited from earlier work
# [4] = Pharmacokinetic study after intravenous compound K (2 mg/kg) in SD rats: plasma, feces, urine; conditions: for Recovery48 h Feces: over 48 h (Table 4)
# Caco-2 cells = system: Caco-2 cells; set-up: method as in PMID 16302287, PMID 32148404, PMID 30013338, PMID 26680316; conditions: cited from earlier work
# [5] = Pharmacokinetic study after intravenous compound K (2 mg/kg) in ICR mice: plasma, feces, urine
# [6] = set-up: method as in PMID 22584255, PMID 30013338, PMID 26680316; conditions: cited from earlier work
# Oatp transporters [7] = assay: Inhibition of hepatic uptake of compound K by rifampin pre-treatment in SD rats; type: in vivo; conditions: rifampin 20 mg/kg PO 1 h before compound K IV 2 mg/kg, 0.5 and 2 h
# Method: (§1) To investigate the effect of rifampin (a representative inhibitor of the organic anion-transporting polypeptide (Oatp) transporters) on the hepatic distribution of compound K, ICR mice and SD rats were randomly divided into either control or rifampin groups. The rifampin group was orally administered with rifampin solution (20 mg/kg, dissolved in DMSO: saline = 2:8, v/v) and the control group received only the vehicle via oral gavage. One hour after rifampin treatment, mice and rats received compound K intravenously at a single dose of 2 mg/kg via tail vein. The animals were euthanized and blood samples (approximately 200 µL) were collected from the abdominal artery at 0.5 and 2 h after intravenous injection. The liver tissues were immediately excised, gently washed with ice-cold saline, and homogenized with 4 volumes of saline. Aliquots (50 μL) of plasma and 20% liver homogenates were stored at −80 °C until the analysis of compound K.
# (§2) The plasma samples and 20% tissue homogenates samples were each mixed with 60 μL of IS (20 ng/mL 13C-caffeine in water) and 600 μL of MTBE. The mixtures were vortexed vigorously for 10 min and centrifuged at 16,000× g for 5 min. After centrifugation, the samples were frozen at −80 °C for 2 h. The upper layer was transferred to a clean tube and evaporated to dryness under a nitrogen stream. […]
# P-glycoprotein (P-gp) = system: P-glycoprotein (P-gp); set-up: method as in PMID 22584255; conditions: single oral dose 10 mg/kg; cited from earlier work
# Oatp transporters [8] = assay: Inhibition of hepatic uptake of compound K by rifampin pre-treatment in ICR mice; type: in vivo; conditions: rifampin 20 mg/kg PO 1 h before compound K IV 2 mg/kg, 0.5 and 2 h
# Method: as §1, §2
# [9] = Tissue distribution study after intravenous compound K (2 mg/kg) in SD rats; type: in vivo; conditions: compound K IV 2 mg/kg
# Method: (§3) ICR mice and SD rats received compound K intravenously at a single dose of 2 mg/kg via tail vein and were returned to the metabolic cage with water and chow ad libitum. The animals were euthanized and blood samples (approximately 200 µL) were collected from the abdominal artery at 0.17, 0.5, 2, 4, 8, and 24 h after intravenous injection. The liver, kidney, brain, heart, lung, spleen, and testis were immediately excised, gently washed with ice-cold saline, and weighed. The tissue samples were homogenized with 4 volumes of saline. Aliquots (50 μL) of plasma and 20% tissue homogenates were stored at –80 °C until the analysis of compound K.
# (§4) The plasma samples and 20% tissue homogenates samples were each mixed with 60 μL of IS (20 ng/mL 13C-caffeine in water) and 600 μL of MTBE. The mixtures were vortexed vigorously for 10 min and centrifuged at 16,000× g for 5 min. After centrifugation, the samples were frozen at −80 °C for 2 h. The upper layer was transferred to a clean tube and evaporated to dryness under a nitrogen stream. The residue was reconfigured with 200 μL of 80% methanol consisting of 0.1% formic acid, and a 10 μL aliquot was injected into the LC-MS/MS system.
# (§5) Compound K and PPD concentrations were analyzed using a modified LC-MS/MS method of Jin et al. with an Agilent 6430 triple quadrupole LC-MS/MS system (Agilent, Wilmington, DE, USA). […]
# [10] = cited from earlier work
# [11] = set-up: method as in PMID 16302287; conditions: rats, cited from earlier work
# [12] = Tissue distribution study after intravenous compound K (2 mg/kg) in ICR mice; type: in vivo; conditions: compound K IV 2 mg/kg
# Method: as §3, §4, §5
# [13] = single oral 200 mg compound K tablet, fasting
# [14] = rat, after compound K IV 2 mg/kg
# [15] = rats, after compound K IV 2 mg/kg
# [16] = ICR, mouse, plasma, iv, 2 mg/kg
# [17] = mice, after compound K IV 2 mg/kg
# [18] = mouse, after compound K IV 2 mg/kg, over 48 h (Table 4)
# [19] = 2 mg/kg, bile cannulated rat, compound K IV 2 mg/kg
# [20] = 2 mg/kg, non-bile cannulated rat, compound K IV 2 mg/kg
compound,measurement,setting,value
"CC(C)=CCCC(C)(O)C1CCC2(C)C1C(O)CC1C3(C)CCC(O)C(C)(C)C3CCC12C [PPD, 20(S)-protopanaxadiol]",presence in bile samples collected over 12 h,"[1]; bile-cannulated rats, after compound K IV 2 mg/kg",without PPD
same,detection in plasma samples,"[1]; bile-cannulated rats, after compound K IV 2 mg/kg, 2 mg/kg",could not be detected
same,detection in plasma samples at 8 h,"[1]; control rats (non-bile cannulated), after compound K IV 2 mg/kg, not present in 2 h sample",detected
same,"amount in intestinal fecal samples, 12 h compared to 2 h","[1]; rats without bile cannulation, after compound K IV 2 mg/kg",greater in the 12 h samples compared to the 2 h samples
same,LogP value,[2],5.53
same,Cmax,[3]; [13],0.0057 µg/mL
same,Tmax,[3]; [13],24.5 h
same,AUC ratio of PPD to compound K,[3]; single oral 200 mg compound K tablet,0.04
same,concentration at 48 h,"[4]; SD, rat, plasma, iv, 2 mg/kg",< 0.005 µg/mL
same,recovery of PPD relative to that of compound K in feces,"[4]; rat feces, after compound K IV 2 mg/kg",3.4 fold
same,metabolic ratio (PPD to compound K ratio) in plasma,"[4]; rat plasma, after compound K IV 2 mg/kg",0.2–1.6
same,Recovery48 h Feces,[4]; [14],46.6 ± 4.9 % of Dose
same,detection in plasma and fecal samples,[4]; [15],detected
same,detection in urine samples,[4]; [15],not detected
same,permeability,Caco-2 cells,1.15e-06 cm/s
same,concentration at 48 h,[5]; [16],< 0.005 µg/mL
same,detection in plasma and fecal samples,[5]; [17],detected
same,detection in urine samples,[5]; [17],not detected
same,recovery of PPD relative to that of compound K in feces,"[5]; mouse feces, after compound K IV 2 mg/kg",1.2 fold
same,metabolic ratio (PPD to compound K ratio) in plasma,"[5]; mouse plasma, after compound K IV 2 mg/kg",0.02–0.08
same,Recovery48 h Feces,[5]; [18],34.4 ± 5.8 % of Dose
"CC(C)=CCCC(C)(OC1OC(CO)C(O)C(O)C1O)C1CCC2(C)C1C(O)CC1C3(C)CCC(O)C(C)(C)C3CCC12C [compound K, 20-O-beta-(D-Glucopyranosyl)-20(S)-protopanaxadiol]",AUC(0-inf),[1]; [19],0.235 ± 0.126 µg·h/mL
same,half-life,[1]; [19],0.78 ± 0.11 h
same,AUC(0-t),[1]; [19],0.211 ± 0.0873 µg·h/mL
same,C0,[1]; [19],0.436 ± 0.326 µg/mL
same,AUC(0-inf),[1]; [20],0.517 ± 0.249 µg·h/mL
same,half-life,[1]; [20],2.4 ± 0.61 h
same,AUC(0-t),[1]; [20],0.496 ± 0.253 µg·h/mL
same,C0,[1]; [20],0.451 ± 0.193 µg/mL
same,Bile12 h (biliary excretion),"[1]; bile cannulated rat, compound K IV 2 mg/kg, bile collected for 12 h",39.1 ± 5.7 % of dose
same,elimination constant,"[1]; bile-cannulated rats, one-compartment model, estimated using 5 points, r^2 0.92",0.90 h⁻¹
same,elimination constant,"[1]; non-bile cannulated (control) rats, estimated using 3 points, r^2 0.94",0.29 h⁻¹
same,aqueous solubility,[6],0.033 mg/mL
same,liver to plasma concentration ratios with rifampin pre-treatment versus control,Oatp transporters [7],decreased
same,plasma concentration of compound K with rifampin pre-treatment versus control,Oatp transporters [7],increased
same,AUC increase in P-gp knock-out mice compared to wild-type mice,P-glycoprotein (P-gp),23.5 fold
same,LogP value,[2],3.85
same,increase of AUC by high-fat meal compared with fasting group,[3]; 200 mg compound K tablet,2.2 fold
same,increase of Cmax by high-fat meal compared with fasting group,[3]; 200 mg compound K tablet,2.0 fold
same,AUC(0-inf),"[4]; SD, rat, plasma, iv, 2 mg/kg",0.67 ± 0.284 µg·h/mL
same,AUC(0-t),"[4]; SD, rat, plasma, iv, 2 mg/kg",0.639 ± 0.299 µg·h/mL
same,C0,"[4]; SD, rat, plasma, iv, 2 mg/kg",0.0753 ± 0.0233 µg/mL
same,MRT,"[4]; SD, rat, plasma, iv, 2 mg/kg",8.9 ± 0.4 h
same,Vd,"[4]; SD, rat, plasma, iv, 2 mg/kg",31.8 ± 3.1 L/kg
same,clearance,"[4]; SD, rat, plasma, iv, 2 mg/kg",3.54 ± 1.31 L/h/kg
same,half-life,"[4]; SD, rat, plasma, iv, 2 mg/kg",7.3 ± 0.4 h
same,Recovery48 h Feces,[4]; [14],13.8 ± 7.1 % of Dose
same,Feces48 h (fecal recovery),"[4]; rat, compound K IV 2 mg/kg, 48 h, 2 mg/kg",13.8 % of dose and ~13.8 ± 7.1 % of dose
same,"CL and Vd, fold larger in rats than in mice","[4]; rats versus mice, compound K IV 2 mg/kg",about five-fold larger
same,liver to plasma concentration ratios with rifampin pre-treatment versus control,Oatp transporters [8],decreased
same,plasma concentration of compound K with rifampin pre-treatment versus control,Oatp transporters [8],increased
same,"AUC ratios of other tissues (kidney, heart, lung, pancreas, testis, brain) to plasma",[9],much lower than the liver/plasma AUC ratio
same,Kp,"[9]; male, SD, rat, liver (relative to plasma), 0.17-24 h, read-out: liver to plasma AUC ratio",11.1
same,permeability,Caco-2 cells,0.5–2 × 10^−6 cm/s
same,AUC(0-t),[5]; [16],3.76 ± 1.64 µg·h/mL
same,C0,[5]; [16],0.4 ± 0.137 µg/mL
same,MRT,[5]; [16],11.8 ± 2 h
same,Vd,[5]; [16],7.08 ± 2.6 L/kg
same,clearance,[5]; [16],0.624 ± 0.294 L/h/kg
same,half-life,[5]; [16],11.4 ± 1.5 h
same,Recovery48 h Feces,[5]; [18],28.4 ± 5.9 % of Dose
same,Recovery48 h Urine,[5]; [18],0.02 ± 0.01 % of Dose
same,Cmax,"[10]; 12 Japanese subjects, single oral fermented ginseng tablet (274.4 mg total; 2.2 mg as compound K)",0.0415 µg/mL
same,Cmax,[10]; subjects given non-fermented Korean red ginseng extract (3 g total; 0 mg as compound K),0.0032 to 0.0248 µg/mL
same,mean Cmax,[10]; subjects given oral fermented Korean red ginseng (3 g total; 10.9 mg as compound K),0.2545 µg/mL
same,AUC increase,"[11]; intravenous injection, dose range 1–10 mg/kg (dose increase 10-fold)",11.6 fold
same,AUC increase,"[11]; oral administration, dose range 5–20 mg/kg (dose increase four-fold)",75.8 fold
same,"AUC ratios of other tissues (kidney, heart, lung, pancreas, testis, brain) to plasma",[12],much lower than the liver/plasma AUC ratio
same,Kp,"[12]; male, ICR, mouse, liver (relative to plasma), 0.17-24 h, read-out: liver to plasma AUC ratio",16.7
